Each structure is given as a SMILES string. Like-named read-outs stand apart in the source and are kept apart here.

Data set [1] is described as follows: Plasma and brain concentration in rats (after PTZ-kindling). The class given is in vivo. Conditions: for concentration at 45 min / Kp at 0.75 h: ip; for Kp at 0.75 h: 45 min. The method, then:
One day after kindling procedure, selected rats (groups with n ≥ 5) were again pre-treated with the compounds of interest and sacrificed at the assumed peak times of brain concentration by CO2 inhalation. Blood was collected intracardially by heart centesis via glass pipettes supplemented with heparin-Na (ratiopharm, Ulm, Germany; 10μl of 5.000 I.U./ml) and separated by centrifuging (1500xg for 10 min) at 6–8°C. The plasma was stored at -20°C in plastic tubes. After blood sample collection, rats were decapitated and brains were quickly dissected. After removing the adherent blood by tissue paper and cutting off the cerebellum, the samples were fresh frozen using liquid nitrogen. Brain tissue was stored at -80°C and delivered to the different laboratories on dry ice. For mice (groups with n = 6), a similar procedure was used for the preparation of plasma and brain samples. In experiments in which AFC was co-administered with carbamazepine or ethosuximide, drug concentrations in plasma and brain were estimated to detect potential pharmacokinetic interactions.
Samples from experiments with AFC were analysed at the Lead Discovery Center (Dortmund, Germany). Briefly, AFC, carbamazepine and ethosuximide were extracted from plasma and homogenized brain by protein precipitation using acetonitrile. Resulting filtrates were analysed by liquid chromatography tandem-mass spectrometry (LC-MS/MS) using a Prominence UFLC system (Shimadzu, Duisburg, Germany) coupled to a QTrap 5500 instrument (ABSciex, Darmstadt, Germany). The compounds were separated on a Zorbax Eclipse Plus C18 column (Agilent Technologies, Santa Clara, CA, USA) with an acetonitrile/water gradient containing 0.1% formic acid as solvent. Chromatographic conditions and mass spectrometer parameters were optimized for each analyte. Plasma and brain concentrations of the compounds were calculated by means of a standard curve.
Plasma and brain samples from experiments with JNJ-47965567 were quantified at the Neuroscience Therapeutic Area, Janssen Research & Development (San Diego, CA, USA) using an API 4000 MS/MS system (Applied Biosystems, Concord, ON, Canada) interfaced with an Agilent 1100 Series HPLC (Agilent Technologies). To measure the percentage of P2X7R brain occupancy of JNJ-47965567, ex vivo receptor binding autography was performed as recently described. Briefly, 20 μm-thick hippocampal slices were prepared and P2X7R radioligand binding was determined at room temperature with 10 nM [^3H] JNJ-54232334 (Janssen) in 50 mM Tris-HCl incubation buffer containing 0.1% bovine serum albumin. The non-specific binding was measured using adjacent sections incubated in the additional presence of 100 μM A-740003 (Tocris Bioscience, Bristol UK). Sections were incubated for 1 min, washed in ice-cold incubation buffer (4 times, 5 min each), followed by two dips in deionized water and rapidly dry under a stream of cold air before acquisition. Quantitative analysis was performed using the Tracer ß-Imager with M3 Vision software (Biospace Lab, Paris, France). Ex vivo receptor labelling was expressed as the percentage of receptor labelling in corresponding brain areas of vehicle-treated control animals.

On the set-up of data set [2]: method as in earlier work. The settings on record: 45.5 mg/kg i.p. every 48h for 1 month, ref [11] of S1 File, cited from earlier work.
Data set [3] relates to electroshock-induced tonic (hindlimb extension) seizures. Kind of data set: Maximal electroshock seizure threshold test (MES-T). The class given is in vivo. Conditions: mice. The protocol:
The stimulus train was applied via ear-clip electrodes (sinusoidal pulses 4-14 mA, 50 Hz, 0.2 s duration) by means of a constant current stimulator (rodent-shocker type 221; Hugo Sachs Elektronik, March-Hugstetten, Germany). […] Groups of 20 mice were used. Control groups, which received the corresponding vehicle, were tested together with the compound-treated groups on the same experimental day. Current intensity-effect curves were obtained on the basis of the number of animals responding with the endpoint at the corresponding current value. The results are calculated as convulsive current fifty (CC50) values (current intensity in mA, necessary to produce tonic hindlimb extension in 50% of the mice tested) including the confidence limits for 95% probability. […] Chemicals, Toronto, Canada) was slowly added. The pH was adjusted with 1N NaOH (similar amount of NaOH as HCl), all with continuous stirring. […] The drug solutions or suspensions were prepared immediately before use; all doses refer to the salts. Animals in the control group received equivalent volumes of the vehicle (in mice always 10 ml/kg, in rats 1 ml/kg [JNJ], 3 ml/kg [AFC] or 4 ml/kg [BBG, TIIAS], depending on the solubility of the different compounds). Doses and peak time effects were selected on the basis of effective doses from corresponding in vivo studies in the literature: BBG (e.g.), tanshinone IIA (e.g.) and from manufacturer's experimental data: AFC, JNJ (see, [80]). Data were analysed using SigmaPlot (vers. 12.0, Systat Software, Erkrath, Germany) and SPSS (IBM SPSS Statistics 20, […], Germany), respectively. Results are expressed as mean ± SEM. […] In the PTZ-T, the number of animals in the group with clonic seizures and the latency time were analysed using Fisher's exact probability test and the Mann-Whitney rank sum test, respectively. […] In the PTZ-kindling model, the mean seizure stage within a group was calculated in relation to the number of PTZ-injections. […] In fully kindled rats, the calculated mean seizure stage within a group after vehicle- and compound-treatment were compared using a paired t-test. […]
Background: The maximal electroshock test induces tonic seizures with an electrical stimulus.

`CCOc1ccc(Nc2ccc(/C(=C3C=C/C(=[N+](/CC)Cc4cccc(S(=O)(=O)[O-])c4)C=C/3C)c3ccc(N(CC)Cc4cccc(S(=O)(=O)O)c4)cc3C)cc2)cc1` [Brilliant Blue G] returned a mean brain concentration in data set [1] (50 mg/kg i.p., 45 min before, n = 7) of 20 ± 2 nM. Further, the concentration at 45 min in data set [1] (rat, brain, 50 mg/kg i.p., 45 min after injection, read-out: rat brain concentration) was 20 nM; in data set [1] (rat, plasma, 50 mg/kg i.p., 45 min before, n = 7, read-out: mean blood plasma concentration), 1600 ± 300 nM. Further, the Kp at 0.75 h in data set [1] (rat, brain, 50 mg/kg, 50 mg/kg i.p., read-out: brain to plasma ratio) was found to be 0.01. Further, the “brain-plasma ratio in mice” value in data set [2] is 0.02. In data set [2] (spectrophotometric analysis), the “brain concentrations in mice” value is 150 nM.

`O=C(NCC1(N2CCN(c3ccccc3)CC2)CCOCC1)c1cccnc1Sc1ccccc1` [JNJ-47965567, N-[[4-(4-phenyl-piperazin-1-yl)tetrahydro-2H-pyran-4-yl]-methyl]-2-(phenyl-thio) nicotinamide]: the “seizure threshold in MES-T at the higher doses” value in data set [3] (AFC 50 mg/kg, JNJ 30 mg/kg, alone) was “small, but non-significant increase in seizure threshold”. The “anticonvulsant effectiveness of co-administration with carbamazepine compared to carbamazepine alone (MES-T)” value in data set [3] (AFC 25 and 50 mg/kg s.c. or JNJ 15 and 30 mg/kg s.c. 30 min before, with carbamazepine 7 mg/kg i.p., P < 0.01) was “significantly increased the anticonvulsant effectiveness”. In addition, the mean brain concentration in data set [1] (15 mg/kg s.c., 30 min before, n = 5, listed as JNJ, 15 mg/kg) was 5000 ± 1100 nM. In addition, the concentration at 30 min in data set [1] (rat, brain, sc, 15 mg/kg s.c., 30 min before, n = 5, read-out: mean brain concentration) turned out to be 5000 nM; in data set [1] (rat, plasma, sc, 15 mg/kg s.c., 30 min before, n = 5, read-out: mean blood plasma concentration) it was 4000 ± 1000 nM. Besides, in data set [1] (rat, brain, sc, 15 mg/kg, 15 mg/kg s.c., 30 min, read-out: brain to plasma ratio), the Kp at 0.5 h was 1.2.

On to `Cc1c(S(=O)(=O)[O-])oc2c1C(=O)C(=O)c1c-2ccc2c1CCCC2(C)C.[Na+]` [Tanshinone TIIAS, tanshinone IIS sulfonic sodium], for which the mean brain concentration in data set [1] (30 mg/kg i.p., 45 min before, n = 5) turned out to be 500 ± 100 nM. For the same compound, the concentration at 45 min was found to be 500 nM in data set [1] (rat, brain, 30 mg/kg i.p., after 45 min, read-out: rat brain concentration) and 31100 ± 5900 nM in data set [1] (rat, plasma, 30 mg/kg i.p., 45 min before, n = 5, read-out: mean blood plasma concentration). In addition, the Kp at 0.75 h in data set [1] (rat, brain, 30 mg/kg, 30 mg/kg i.p., read-out: brain to plasma ratio) was 0.02.

These data come from article PMC4900628, “Critical Evaluation of P2X7 Receptor Antagonists in Selected Seizure Models” (PLoS ONE, 2016).
